Test results as given in patent US10426817B2, “Treatment of age-related macular degeneration and other eye diseases with apolipoprotein mimetics” (MacRegen, Inc., priority 2017, dated 2019).

Assays:
[1] = in vivo; cited from earlier work
[2] = system: complement factor D (CFD); test: Immunohistochemistry of complement factor D, macaque study; type: in vivo, Macaca fascicularis; conditions: eyes injected with L-4F vs eyes injected with the scrambled peptide; 6 monthly intravitreal injections
Experimental: (§1) The macaque study was conducted according to accepted guidelines.
(§2) Assays for immunohistochemistry of the membrane attack complex (MAC, C5b-9) and complement factor D (CFD) were performed identically except for employment of monoclonal antibodies specific for each complement component. Specimens were treated with 10 μg/mL protease K (Sigma-Aldrich Biochemie GmbH, Hamburg, Germany) in PBS for antigen retrieval for 30 min at RT. Subsequently the sections were blocked with a solution of goat serum (5% goat serum, 0.3% Triton X-100 in PBS) for 60 min at RT. The specimens were then reacted with a first antibody against either C5b-9 (diluted 1:30 in PBS, mouse monoclonal antibody, Dako Deutschland GmbH, Hamburg, Germany) or complement factor D (diluted 1:200 in PBS, mouse monoclonal antibody, Santa Cruz Biotechnology, Dallas, Tex., USA) overnight at 4° C. […] Fluorescence microscopy was conducted using an inverted fluorescence microscope (DMI 6000 from Leica Microsystems, Wetzlar, Germany) and a filter set for λex/λem=470 nm/525 nm. For the semiquantitative analysis of fluorescence intensity of C5b-9, 3-5 different regions in one slide were analyzed for 3 different slides from each eye (a total of 9-15 different regions from each eye). For the semiquantitative analysis of fluorescence intensity of complement factor D, 3 distinct regions for each eye were evaluated.

Bruch's membrane = Bruch's membrane thickness at the temporal outer macula by electron microscopy, macaque study; type: in vivo, Macaca fascicularis
Experimental: as §1
Lipid deposition in the Bruch's membrane contributes to thickening of the BrM. Bruch's membrane thickness was measured at the temporal outer macula of enucleated eyes examined by electron microscopy post-mortem.

[3] = system: neutral lipids in and on the Bruch's membrane; test: Oil red O (ORO) staining of neutral lipids in Bruch's membrane, macaque study; type: in vivo, Macaca fascicularis; conditions: eyes injected with L-4F vs eyes injected with placebo (scrambled L-4F); 6 monthly intravitreal injections, total 625 μg; after 6 months
Experimental: as §1
For staining with oil red O (ORO), specimens were treated with a 0.3% oil red O (Sigma-Aldrich Biochemie GmbH, Hamburg, Germany) solution (in 99% isopropanol) for 30 min at room temperature (RT), followed by immersion in a 60% isopropanol solution for 12 min. After the specimens were washed with deionized water for 3 min, counter-staining was conducted with hematoxylin (Carl Roth GmbH, Karlsruhe, Germany). The specimens were then mounted with mounting solution (Aquatex from Merck Millipore, Darmstadt, Germany), covered with a glass cover slip (Menzel-Graeser GmbH), and examined using a fully automated inverted light microscope for life science (DMI 6000 from Leica Microsystems Wetzlar, Germany). Image analysis was performed by grading the intensity of ORO staining (red color) of the Bruch's membrane (BrM) with scores ranging from 0 to 4, according to a qualitative evaluation assessed in four different regions in two separate slices from each eye (a total of 8 different regions from each eye). Qualitative ORO staining scores at the BrM and the choroid: 0=no staining; 1=+; 2=++; 3=+++; 4=++++.

[4] = system: membrane attack complex (MAC, C5b-9); test: Immunohistochemistry of membrane attack complex, macaque study; type: in vivo, Macaca fascicularis; conditions: eyes injected with L-4F vs eyes injected with the scrambled peptide; 6 monthly intravitreal injections
Experimental: as §1, §2

[5] = system: geriatric macaques with naturally occurring age-related maculopathy; test: Macaque study of age-related maculopathy: fellow-eye effects and tolerability; type: in vivo; conditions: 6 monthly intravitreal injections, all macaques
Experimental: as §1

[6] = system: high-sensitivity C-reactive protein (hsCRP); conditions: cynomolgus monkey, in vivo
Experimental: The macaque study was conducted according to accepted guidelines. […] One eye per animal received 6 monthly injections of the same escalating dosages of L-4F or scrambled L-4F (total of 625 μg) in a 50 μL volume. The second eye per animal was not injected and was just observed.
Clinical laboratory tests including serology, hemograms and liver enzymes were conducted, and ophthalmic examinations were also performed, including fundus photographs, optical coherence tomography (OCT), intraocular pressure testing and blood sampling. After 7 months, all animals were sacrificed and eyes were immediately prepared for histology.
Circulating hsCRP, which is mainly produced in the liver, is a non-specific marker for systemic inflammation.

[7] = system: esterified cholesterol in the Bruch's membrane; test: Filipin staining of esterified cholesterol in Bruch's membrane, macaque study; type: in vivo, Macaca fascicularis; conditions: eyes injected with L-4F vs placebo-injected eyes; 6 monthly intravitreal injections
Experimental: as §1
For staining with filipin, specimens were washed once with deionized water for 5 min and then treated with 70% ethanol for 45 min. After being washed with deionized water for 5 min, the specimens were treated with cholesterol esterase (8.12 units/mL) diluted in 0.1 M potassium phosphate buffer (PPB, pH 7.4) for 3.5 hr at 37° C. The specimens were then washed sequentially with PPB and with phosphate buffered saline (PBS) twice for 3 min, followed by a wash with cold (4° C.) PBS overnight. Filipin staining was then performed with 250 μg/mL filipin (Sigma-Aldrich Biochemie GmbH, Hamburg, Germany), diluted in N,N-dimethylformamide (Merck Millipore, Darmstadt, Germany), for 60 min at RT with light shielding. The specimens were then washed sequentially with PBS and deionized water, mounted with a mounting solution (Mowiol®, Carl Roth GmbH, Karlsruhe, Germany), covered with a glass cover slip, and examined using an inverted fluorescence microscope (DMI 6000 from Leica Microsystems, Wetzlar, Germany). Filipin fluorescence was observed using a UV filter set (λex/λem=350 nm/455 nm). […] Semiquantitative analysis of fluorescence intensity of filipin at three separate regions of the BrM was done on three different slides from the same eye (a total of 9 different regions from each eye).

geographic atrophy = conditions: monthly intravitreal injections of 10 mg for 18 months, cited from earlier work

ranibizumab: anti-VEGF antibody or fragment thereof
intravitreal half-life [1]: about 7.1 days

aflibercept: soluble fusion protein containing one or more extracellular domains of one or more VEGFRs; anti-VEGF agent
intravitreal half-life [1]: about 9.0 days

Ac-DWFKAFYDKVAEKFKEAF-NH2 [L-4F, Ac-DWFKAFYDKVAEKFKEAF-NH2 acetate salt (SEQ. ID. NO. 13)]
decreased level of complement factor D (fluorescence intensity, semiquantitative) [2]: about 41% | reduction of BrM thickness (Bruch's membrane; eyes injected with L-4F vs eyes injected with placebo): about 24% | BrM thickness at the temporal outer macula (Bruch's membrane; injected eyes, electron microscopy post-mortem, mean ± SE): 1.31 μm | reduction of lipid deposits from the BrM (oil red O staining) [3]: about 56% | decreased level of MAC (C5b-9) in the BrM and the choriocapillaris (fluorescence intensity, semiquantitative) [4]: about 58% | tolerability (significant adverse event or side effect) [5]: well tolerated | blood level of hsCRP [6]: did not increase | reduction of esterified cholesterol in the BrM (filipin fluorescence, semiquantitative) [7]: about 68%

bevacizumab: anti-VEGF antibody or fragment thereof
intravitreal half-life [1]: about 9.8 days

lampalizumab: antigen-binding fragment (Fab) of a humanized monoclonal antibody targeting complement factor D (CFD)
reduction in the area of geographic atrophy in the injected eye (geographic atrophy; fundus autofluorescence, vs placebo): about 20% | reduction in the area of geographic atrophy, subgroup positive for the CFI biomarker (geographic atrophy): about 44%
